Measured values as given in US20100069854A1, “Elastomeric Devices Containing Chlorhexidine/Fatty Acid Salts Made From Fatty Acids of 12 to 18 Carbons” (priority 2008, published 2010).

Assays:
[1] = test system: Pseudomonas aeruginosa ATCC 27853; assay: Basic broth adherence assay on coated polyurethane tubes; type: cell-based
Method: The antimicrobial effectiveness of the coated samples was subjected to different durations of DI water extraction by basic broth adherence assay. For each chlorhexidine/fatty acid salt tested, 3 samples of coated tubing were prepared and assayed. To prepare the inoculum, a culture of Pseudomonas aeruginosa ATCC 27853 was used to challenge the coated polyurethane tubes and controls. The negative control used was a length of uncoated polyurethane tube. The challenge microorganism suspension was prepared as follows: approximately three colonies were removed from a secondary working culture plated on Trypticase Soy Agar (TSA) (BD-Falcon) with 5% sheep's blood and added to 10 ml of Trypticase Soy Broth (TSB). The vial was vortexed for approximately 30 seconds and incubated for 4 hours at 37° C. at 100 rpm. Following incubation, the vial was removed and vortexed. The optical density of the organism suspension was read. The inoculum was then diluted in TSB to a concentration of 5×10^4 colony forming units per milliliter (CFU/mL). This concentration was confirmed by the Miles and Misra drop count method.
The basic broth adherence assay was performed in a 96 well micro titer plate. To each well of the micro titer plate containing either a test article or a control, 900 μl of TSB was added. To this, 100 μl of the adjusted inoculum was added (Note: Due to the 1/10 dilution per well, the starting inoculum concentration of each organism was […] for Pseudomonas aeruginosa). The micro titer plates were then sealed via parafilm® around the edges and wrapped in foil to avoid evaporation of liquid and light contact with the samples. The plates were then placed inside a shaker incubator set at 37° C. and 100 rpm for 24 hours. Incubation at 37° C. then continued until the elapse of 7 days, 14 days, and 21 days, respectively, for each of the 3 samples prepared for each chlorhexidine/fatty acid salt.
At the completion of the respective incubation periods, the samples were rinsed, sonicated, the sonicate was plated and adherence was evaluated. More particularly, following incubation, all samples and controls were dip-rinsed twice in phosphate buffered saline (PBS) to remove the surrounding media. After rinsing, test articles were sonicated in micro titer plate wells containing 1 mL of Dey-Engley (DE) neutralizing broth (Difco). The sonication liquid was then serially diluted, and plated onto the surface of DE neutralizing agar. Plates were incubated at 37° C. for 24 to 48 hours and colonies were counted. Recovery counts were recorded as CFU/mL.

[2] = test system: Candida albicans ATCC 10231; assay: Zone of inhibition assay with impregnated polyurethane foam discs; type: cell-based
Method: To evaluate antimicrobial properties of polyurethane foam samples infused with the various chlorhexidine/fatty acid salts, a zone of inhibition assay was performed. In this assay, 1.4% (w/v) of chlorhexidine acetate, chlorhexidine caprate, chlorhexidine laurate, chlorhexidine myristate, chlorhexidine palmitate and chlorhexidine stearate solutions in methanol were prepared. A supply of 8 mm discs were punched out of a sheet of polyurethane foam (Rynel medical grade polyurethane foam) with biopsy punches (Miltex Kai). Several discs were placed in each of six 50 ml centrifuge tubes. Approximately 5 ml of each of the different methanol/chlorhexidine/fatty acid salt solutions was added to each respective tube. The discs were centrifuged for 5 minutes to remove any air bubbles and soaked for 1 hr to infuse the foam discs with the respective chlorhexidine/fatty acid salt. Infused discs were transferred to clean centrifuge tubes and vacuum dried at 25° C. for 24 hrs to remove any residual solvents. Initial concentrations of salts, impregnated into the punches, were determined by dissolving the impregnated foams and by high pressure liquid chromatography (HPLC) analysis using an Agilent Eclipse XDB-CN 3u 4.6×150 mm column with initial mobile phase=65% DI water/0.2% trifluoroacetic acid (TFA): 35% Acetonitrile/0.2% TFA. Chlorhexidine absorbance was read at 253 nm and concentration was calculated via a chlorhexidine calibration curve. […] To perform the zone of inhibition assay on the impregnated polyurethane foam discs, agar plates were prepared by mixing 11 g Mueller-Hinton cation-adjusted broth and 1.5 g agarose in 500 ml DI water. The agar was autoclaved for 15 minutes at 121° C., 15 psi. 10 ml of the still hot, liquid agar was pipetted onto petri dishes. The challenge organism, Candida albicans ATCC 10231, was cultivated in Trypticase soy broth, standard microbiological growth medium (TSB). Sterile cotton swabs were dipped into the undiluted culture and the plated agar was fully inoculated with swabs. The 8 mm polyurethane foam discs were transferred daily to a freshly inoculated agar for 9 days. The zone of inhibition (ZOI) was measured using calipers. Actual ZOI was measured by subtracting the diameter of the foam (when wet) from the zone measured and dividing by 2. The results are presented in Table 6, with a graphical representation of the ZOI in FIG. 2;

[3] = Incorporation of chlorhexidine salts into silicone tubing (swelling impregnation, extraction, HPLC); type: physicochemical; conditions: one day, equivalent mass of chlorhexidine base extracted;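 note: columns differ by chlorhexidine salt concentration in the impregnation solution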
Method: Chlorhexidine diacetate, Chlorhexidine dodecanoate and chlorhexidine palmitate were loaded into silicone tubing by first dissolving the chlorhexidine salt in a 90% THF+10% Methanol solution.
Impregnated chlorhexidine was extracted from the tubing by immersing in an excess of THF to fully swell it and then adding an equal volume of water to extract the chlorhexidine salt. The quantity of chlorhexidine was determined by previously enumerated HPLC method. It is reported below for different concentration impregnation solutions in terms of the equivalent mass of chlorhexidine base extracted: […]

[4] = 90% THF+10% Methanol
Excerpt: Chlorhexidine diacetate, Chlorhexidine dodecanoate and chlorhexidine palmitate were loaded into silicone tubing by first dissolving the chlorhexidine salt in a 90% THF+10% Methanol solution. The tubing was then immersed in this solution for one day where it swelled and chlorhexidine salt diffused into the polymer matrix. The impregnated piece of tubing was removed and then vacuum dried to remove all volatile solvent.

**Q.** Which “Log10 reduction of adhered Pseudomonas aeruginosa onto the surface of coated polyurethane tubes” value (shortened to “Log10 reduction”) ([1]; 7 days) does the source give for `N=C(NCCCCCCNC(=N)NC(=N)Nc1ccc(Cl)cc1)NC(=N)Nc1ccc(Cl)cc1.Nc1ccc(P(=O)(O)O)cc1.Nc1ccc(P(=O)(O)O)cc1` [Chlorhexidine Palmitate, chlorhexidine dipalmitate] here?
**A.** The value was 7.

**Q.** And the “Log10 reduction” value ([1]; 14 days)?
**A.** Its value is 7.

**Q.** And the “Log10 reduction” value ([1]; 21 days)?
**A.** Its value is 7.

**Q.** What about the “ZOI produced by impregnated polyurethane foam punches against Candida albicans” value (“ZOI produced” for short) ([2]; Day 1, daily transfer to fresh agar) of the same compound?
**A.** The value was 14 mm.

**Q.** What about the “ZOI produced” value ([2]; Day 2, daily transfer to fresh agar) of the same compound?
**A.** Its value is 21 mm.

**Q.** What about the “ZOI produced” value ([2]; Day 3, daily transfer to fresh agar) of the same compound?
**A.** The value was 19 mm.

**Q.** What about the “ZOI produced” value ([2]; Day 4, daily transfer to fresh agar) of the same compound?
**A.** Its value is 14 mm.

**Q.** And the “ZOI produced” value ([2]; Day 7, daily transfer to fresh agar)?
**A.** The value was 11 mm.

**Q.** What about the “ZOI produced” value ([2]; Day 8, daily transfer to fresh agar) of the same compound?
**A.** The value was 14 mm.

**Q.** And the “ZOI produced” value ([2]; Day 9, daily transfer to fresh agar)?
**A.** The value was 15 mm.

**Q.** And the “Salt content in silicone elastomeric medical article” value (“Salt content” for short) ([3]; 1% impregnation solution in 90% THF+10% Methanol)?
**A.** The value was 133 µg/cm.

**Q.** What about the “Salt content” value ([3]; 3% impregnation solution in 90% THF+10% Methanol) of the same compound?
**A.** Its value is 205 µg/cm.

**Q.** What about the “Salt content” value ([3]; 6% impregnation solution in 90% THF+10% Methanol) of the same compound?
**A.** The value was 356 µg/cm.

**Q.** What about the “Salt content” value ([3]; 10% impregnation solution in 90% THF+10% Methanol) of the same compound?
**A.** Its value is 366 µg/cm.

**Q.** What about the “Salt content” value ([3]; 20% impregnation solution in 90% THF+10% Methanol) of the same compound?
**A.** Its value is 407 µg/cm.

**Q.** What about the “Solubility in the swelling impregnation solvent mixture (in words)” value [4] of the same compound?
**A.** The value was “soluble at higher concentrations”.
